Laboratory results taken from patent publication US6376518B1, “Acyl derivatives of 4-demethylpenclomedine, use thereof and preparation thereof” (Southern Research Institute, priority 1999, dated 2002).
Read-outs that look alike come from different tables or passages of the source. Marks after values point to notes of the source that are not given here.

Key:
human MX-1 mammary tumor [1] = test: In vivo antitumor activity vs s.c.-implanted human MX-1 mammary tumor xenograft in athymic mice; settings: sc MX-1
human MX-1 mammary tumor [2] = test: In vivo antitumor activity vs i.c.-implanted human MX-1 mammary tumor xenograft in athymic mice; settings: ic MX-1; for Tumor-Free-Surv/Total / Median % ILS (dying mice only): Days 1-5; for Survivors / Median % ILS (based on dying mice only): optimal doses (LD10 or less), schedule QD1-5, administered LP.
P388/BCNU leukemia = test: Antitumor activity against IP-implanted P388/BCNU leukemia in mice; settings: P388/BCNU, Q1D × 5 (1); for MEDIAN DAY OF DEATH: dying mice only
P388/0 leukemia = settings: P388/0, Q1D × 5 (1); for MEDIAN DAY OF DEATH: dying mice only
P388/CPA leukemia = test: Antitumor activity against IP-implanted P388/CPA leukemia in mice; format: in vivo, murine; settings: P388/CPA, Q1D × 5 (1)
[3] = oral (gavage) 135 mg/kg/dose, Days 12-16
[4] = oral (gavage) 135 mg/kg/dose, Days 13-17
[5] = P388/L-PAM, IP 60.0 mg/kg/dose, Q1D × 5 (1)
[6] = P388/L-PAM, IP 90.0 mg/kg/dose, Q1D × 5 (1)
[7] = P388/L-PAM, IP 135.0 mg/kg/dose, Q1D × 5 (1)

## COc1nc(C(Cl)(Cl)Cl)c(Cl)c(OC(=O)CI)c1Cl [DM-IA-PEN]
Human MX-1 mammary tumor [1]; IP 60 mg/kg/dose, Days 12-16
  Dose (mg/kg) with observed lethality level: 60 (LD40)
  Tumor-Free-Surv/Total: 1/5

## COc1nc(C(Cl)(Cl)Cl)c(Cl)c(OC(=O)c2ccncc2)c1Cl [DM-IN-PEN]
Human MX-1 mammary tumor [1]; IP 90 mg/kg/dose, Days 12-16
  Dose (mg/kg) with observed lethality level: 90 (LD20)
  Tumor-Free-Surv/Total: 3/5

## COCC(=O)Oc1c(Cl)c(OC)nc(C(Cl)(Cl)Cl)c1Cl [DM-MA-PEN]
Human MX-1 mammary tumor [1]; [3]
  T-C: >41.0 days
  Tumor-Free-Surv/Total: 5/5
Human MX-1 mammary tumor [2]
  activity against i.c.-implanted tumor in comparison to PEN and DM-PEN (in words): significant activity
  Survivors: 1/5
Human MX-1 mammary tumor [2]; IP 90 mg/kg/dose
  Tumor-Free-Surv/Total: 1/5
Human MX-1 mammary tumor [2]; oral (gavage) 90 mg/kg/dose
  Median % ILS (dying mice only): +110%
  Tumor-Free-Surv/Total: 1/5

## COc1nc(C(Cl)(Cl)Cl)c(Cl)c(OC(=O)c2ccc([N+](=O)[O-])cc2)c1Cl [DM-NB-PEN]
Human MX-1 mammary tumor [1]; IP 135 mg/kg/dose, Days 12-16
  Tumor-Free-Surv/Total: 5/5

## COc1nc(C(Cl)(Cl)Cl)c(Cl)c(OC(=O)c2ccc([N+](=O)[O-])o2)c1Cl [DM-NF-PEN]
Human MX-1 mammary tumor [1]; IP 90 mg/kg/dose, Days 12-16
  Tumor-Free-Surv/Total: 4/5
Human MX-1 mammary tumor [2]; IP 135 mg/kg/dose
  Median % ILS (dying mice only): +59%

## COc1nc(C(Cl)(Cl)Cl)c(Cl)c(OC(=O)C(C)(C)C)c1Cl [DM-P-PEN]
Human MX-1 mammary tumor [1]; IP 135 mg/kg/dose, Days 11-15
  Tumor-Free-Surv/Total: 5/5
Human MX-1 mammary tumor [1]; [4]
  T-C: 0.9 days
  Tumor-Free-Surv/Total: 0/5
Human MX-1 mammary tumor [2]; IP 135 mg/kg/dose
  Median % ILS (dying mice only): +64%
Human MX-1 mammary tumor [2]; oral (gavage) 135 mg/kg/dose
  Median % ILS (dying mice only): +20%

## COc1nc(C(Cl)(Cl)Cl)c(Cl)c(O)c1Cl [DM-PEN, 3,5-dichloro-2-methoxy-4-hydroxy-6-(trichloromethyl)pyridine]
P388/BCNU leukemia; IP 60.0 mg/kg/dose
  50-DAY SURV/TOTAL: 0/6
  % ILS: +33%
  APPROX. NET LOG10 CHANGE IN TUMOR BURDEN AT END OF Rx: +0.8
  MEDIAN DAY OF DEATH: 12.0
P388/BCNU leukemia; IP 90.0 mg/kg/dose
  50-DAY SURV/TOTAL: 0/6
  % ILS: +55%
  APPROX. NET LOG10 CHANGE IN TUMOR BURDEN AT END OF Rx: −0.8
  MEDIAN DAY OF DEATH: 14.0
P388/BCNU leukemia; IP 135.0 mg/kg/dose
  50-DAY SURV/TOTAL: 0/6
  % ILS: +88%
  APPROX. NET LOG10 CHANGE IN TUMOR BURDEN AT END OF Rx: −3.1
  Toxicity / lethality level at the dosage (LD): LD17
  MEDIAN DAY OF DEATH: 17.0
P388/0 leukemia; IP 60.0 mg/kg/dose
  50-DAY SURV/TOTAL: 0/6
  % ILS: +45%
  APPROX. NET LOG10 CHANGE IN TUMOR BURDEN AT END OF Rx: −0.8
  MEDIAN DAY OF DEATH: 16.0
P388/0 leukemia; IP 90.0 mg/kg/dose
  50-DAY SURV/TOTAL: 0/6
  % ILS: +72%
  APPROX. NET LOG10 CHANGE IN TUMOR BURDEN AT END OF Rx: −3.1
  MEDIAN DAY OF DEATH: 19.0
P388/0 leukemia; IP 135.0 mg/kg/dose
  50-DAY SURV/TOTAL: 0/6
  % ILS: −23%
  Toxicity / lethality level at the dosage (LD): TOXIC
  MEDIAN DAY OF DEATH: 8.5
Human MX-1 mammary tumor [2]
  Median % ILS (based on dying mice only): 60%
  Survivors: 0/5
P388/L-PAM leukemia; [5]
  50-DAY SURV/TOTAL: 0/6
  % ILS: −4%
  APPROX. NET LOG10 CHANGE IN TUMOR BURDEN AT END OF Rx: +1.6
P388/L-PAM leukemia; [6]
  50-DAY SURV/TOTAL: 0/6
  % ILS: −8%
  APPROX. NET LOG10 CHANGE IN TUMOR BURDEN AT END OF Rx: +1.6
P388/L-PAM leukemia; P388/L-PAM, IP 90.0 mg/kg/dose, Q1D × 5 (1), dying mice only
  MEDIAN DAY OF DEATH: 13.0
P388/L-PAM leukemia; [7]
  50-DAY SURV/TOTAL: 0/6
  % ILS: −4%
  APPROX. NET LOG10 CHANGE IN TUMOR BURDEN AT END OF Rx: +1.6
  Toxicity / lethality level at the dosage (LD): LD33
P388/L-PAM leukemia; mouse, in vivo
  activity in the P388/L-PAM tumor model (in words): none of the three showed significant activity
P388/CPA leukemia; IP 60.0 mg/kg/dose
  50-DAY SURV/TOTAL: 0/6
  % ILS: +22%
  APPROX. NET LOG10 CHANGE IN TUMOR BURDEN AT END OF Rx: +0.9
P388/CPA leukemia; IP 90.0 mg/kg/dose
  50-DAY SURV/TOTAL: 0/6
  % ILS: +54%
  APPROX. NET LOG10 CHANGE IN TUMOR BURDEN AT END OF Rx: −1.1
P388/CPA leukemia; IP 90.0 mg/kg/dose, dying mice only
  MEDIAN DAY OF DEATH: 17.0
P388/CPA leukemia; IP 135.0 mg/kg/dose
  50-DAY SURV/TOTAL: 0/6
  % ILS: +31%
  APPROX. NET LOG10 CHANGE IN TUMOR BURDEN AT END OF Rx: +0.3

## COc1nc(C(Cl)(Cl)Cl)c(Cl)c(OC(=O)Cc2cccs2)c1Cl [DM-TA-PEN]
Human MX-1 mammary tumor [1]; IP 90 mg/kg/dose, Days 12-16
  Tumor-Free-Surv/Total: 3/5
Human MX-1 mammary tumor [2]; IP 90 mg/kg/dose
  Median % ILS (dying mice only): +75%

## COc1nc(C(Cl)(Cl)Cl)c(Cl)c(OC(=O)c2cccs2)c1Cl [DM-TC-PEN]
Human MX-1 mammary tumor [1]; IP 90 mg/kg/dose, Days 12-16
  Tumor-Free-Surv/Total: 4/5
Human MX-1 mammary tumor [2]
  activity against i.c.-implanted tumor in comparison to PEN and DM-PEN (in words): significant activity
  Median % ILS (based on dying mice only): 100^d %
  Survivors: 0/5
Human MX-1 mammary tumor [2]; IP 135 mg/kg/dose
  Median % ILS (dying mice only): +100%
  Tumor-Free-Surv/Total: 0/5
